system: JJN3 cell line; test: Apoptosis assay using JJN3 cell line (annexin V/PI); type: cell-based; settings: Homo sapiens, JJN-3; JJN3 cell line, 24 h of treatment
Description: Apoptosis was assessed by Annexin V/propidium iodide (Biolegend, 640906, Sigma P4170) staining using LSRII Biosciences, Facscanto. Cell viability was detected by CellTiter-Glo® (My Bio, G3582) according to the manufacture's protocol. Mitochondrial membrane potential was measured by adding Tetramethylrhodamine, ethyl ester (TMRE) (Biosciences, T669) at 20 nM for 30 minutes at 37° C. and assessed by flow cytometry with FACS CANTO II. […]

`O=C(O)C1CCN(C(=O)CSC2=N[C@@H]3CCCC[C@H]3N2)CC1` (racemic) [TTC-16, (±)-trans-2-((2-(4-carboxypiperidin-1-yl)-2-oxoethyl)thio)-3a,4,5,6,7,7a-hexahydro-1H-benzo[d]imidazol-3-ium chloride] and `O=C(CSC1=N[C@@H]2CCCC[C@H]2N1)N1CCC(O)CC1` (racemic) [TTC-15, (±)-trans-2-((2-(4-hydroxypiperidin-1-yl)-2-oxoethyl)thio)-3a,4,5,6,7,7a-hexahydro-1H-benzo[d]imidazol-3-ium chloride] cannot be ordered by IC50: > 10 µM for the first, > 10 µM for the second.

`O=C(CSC1=N[C@@H]2CCCC[C@H]2N1)N1CCN(c2ccccc2)CC1` (racemic) [TTC-07, (±)-trans-2-((2-oxo-2-(4-phenylpiperazin-1-yl)ethyl)thio)-3a,4,5,6,7,7a-hexahydro-1H-benzo[d]imidazol-3-ium chloride] and `O=C(CSC1=N[C@@H]2CCCC[C@@H]2N1)N1CCN(c2ccccc2)CC1` [TTC-13, cis-2-((2-oxo-2-(4-phenylpiperazin-1-yl)ethyl)thio)-3a,4,5,6,7,7a-hexahydro-1H-benzo[d]imidazol-3-ium chloride] cannot be ordered by IC50: > 10 µM for the first, > 10 µM for the second.

`CC(=O)N1CCN(C(=O)CSC2=N[C@@H]3CCCC[C@H]3N2)CC1` (racemic) [TTC-40, (±)-trans-2-((-(4-acetylpiperazin-1-yl)-2-oxoethyl)thio)-3a,4,5,6,7,7a-hexahydro-1H-benzo[d]imidazol-3-ium chloride] and `CC(C)(C)OC(=O)N1CCN(C(=O)CSC2=N[C@@H]3CCCC[C@H]3N2)CC1` (racemic) [TTC-08, (±)-trans-2-((2-(4-(tert-butoxycarbonyl)piperazin-1-yl)-2-oxoethyl)thio)-3a,4,5,6,7,7a-hexahydro-1H-benzo[d]imidazol-3-ium chloride] cannot be ordered by IC50: > 10 µM for the first, > 10 µM for the second.

`O=C(CSC1=NCCN1)N1CCOCC1` [TTC-09, 2-((2-morpholino-2-oxoethyl)thio)-4,5-dihydro-1H-imidazol-3-ium chloride] and `O=C(CSc1ncc[nH]1)N1CCOCC1` [TTC-22, 2-((1H-imidazol-2-yl)thio)-1-morpholinoethan-1-one] cannot be ordered by IC50: > 10 µM for the first, > 10 µM for the second.

`O=C(CSC1=N[C@@H]2CCCC[C@H]2N1)Nc1ccccc1` (racemic) [TTC-18, (±)-trans-2-((2-oxo-2-(phenylamino)ethyl)thio)-3a,4,5,6,7,7a-hexahydro-1H-benzo[d]imidazol-3-ium chloride] and `O=C(CSC1=N[C@@H]2CCCC[C@H]2N1)N1CCC(c2ccccc2)CC1` (racemic) [TTC-33, (±)-trans-2-((2-oxo-2-(4-phenylpiperidin-1-yl)ethyl)thio)-3a,4,5,6,7,7a-hexahydro-1H-benzo[d]imidazol-3-ium chloride] cannot be ordered by IC50: > 10 µM for the first, > 10 µM for the second.

`O=C(CCCSC1=N[C@H]2CCCC[C@@H]2N1)N1CCOCC1` [TTC-25, 4-(((3aS,7aS)-3a,4,5,6,7,7a-hexahydro-1H-benzo[d]imidazol-2-yl)thio)-1-morpholinobutan-1-one] and `O=C(CSC1=N[C@@H]2CCCC[C@@H]2N1)N1CCOCC1` [TTC-02, cis-2-((2-morpholino-2-oxoethyl)thio)-3a,4,5,6,7,7a-hexahydro-1H-benzo[d]imidazol-3-ium chloride] cannot be ordered by IC50: > 10 µM for the first, > 10 µM for the second.

`O=C(CSC1=N[C@@H]2CCCC[C@@H]2N1)N1CCCCC1` [TTC-10, cis-2-((2-oxo-2-(piperidin-1-yl)ethyl)thio)-3a,4,5,6,7,7a-hexahydro-1H-benzo[d]imidazol-3-ium chloride] and `O=C(CSC1=N[C@@H]2CCCC[C@@H]2N1)N1CCSCC1` [TTC-11, cis-2-((2-oxo-2-thiomorpholinoethyl)thio)-3a,4,5,6,7,7a-hexahydro-1H-benzo[d]imidazol-3-ium chloride] cannot be ordered by IC50: > 10 µM for the first, > 10 µM for the second.

`Cc1ccccc1N1CCN(C(=O)CSC2=N[C@@H]3CCCC[C@H]3N2)CC1` (racemic) [TTC-36, (±)-trans-2-((2-oxo-2-(4-(o-tolyl)piperazin-1-yl)ethyl)thio)-3a,4,5,6,7,7a-hexahydro-1H-benzo[d]imidazol-3-ium chloride] and `Cc1ccc(N2CCN(C(=O)CSC3=N[C@@H]4CCCC[C@H]4N3)CC2)cc1` (racemic) [TTC-38, (±)-trans-2-((2-oxo-2-(4-(p-tolyl)piperazin-1-yl)ethyl)thio)-3a,4,5,6,7,7a-hexahydro-1H-benzo[d]imidazol-3-ium chloride] cannot be ordered by IC50: > 10 µM for the first, > 10 µM for the second.

Compared with `CCCC1CCN(C(=O)CSC2=N[C@@H]3CCCC[C@H]3N2)CC1` (racemic) [TTC-29, (±)-trans-2-((2-oxo-2-(4-propylpiperidin-1-yl)ethyl)thio)-3a,4,5,6,7,7a-hexahydro-1H-benzo[d]imidazol-3-ium chloride], `CCC1CCN(C(=O)CSC2=N[C@@H]3CCCC[C@H]3N2)CC1` (racemic) [TTC-28, (±)-trans-2-((2-(4-ethylpiperidin-1-yl)-2-oxoethyl)thio)-3a,4,5,6,7,7a-hexahydro-1H-benzo[d]imidazol-3-ium chloride] is higher in IC50: < 10 µM for the first, > 10 µM for the second.

Compared with `O=C1CN(C(=O)CSC2=N[C@@H]3CCCC[C@H]3N2)CCN1` (racemic) [TTC-17, (±)-trans-2-((2-oxo-2-(3-oxopiperazin-1-yl)ethyl)thio)-3a,4,5,6,7,7a-hexahydro-1H-benzo[d]imidazol-3-ium chloride], `CC1CCN(C(=O)CSC2=N[C@@H]3CCCC[C@H]3N2)CC1` [TTC-26, (3aR,7aR)-2-((4-methylpiperidin-1-yl)-2-oxoethyl)thio)-3a,4,5,6,7,7a-hexahydro-1H-benzo[d]imidazol-3-ium chloride] is lower in IC50: > 10 µM for the first, < 10 µM for the second.

`CS(=O)(=O)N1CCN(C(=O)CSC2=N[C@@H]3CCCC[C@@H]3N2)CC1` [TTC-12, cis-2-((2-(4-(methylsulfonyl)piperazin-1-yl)-2-oxoethyl)thio)-3a,4,5,6,7,7a-hexahydro-1H-benzo[d]imidazol-3-ium chloride] and `CS(=O)(=O)N1CCN(C(=O)CSC2=N[C@@H]3CCCC[C@H]3N2)CC1` (racemic) [TTC-06, (±)-trans-2-((2-(4-(methylsulfonyl)piperazin-1-yl)-2-oxoethyl)thio)-3a,4,5,6,7,7a-hexahydro-1H-benzo[d]imidazol-3-ium chloride] cannot be ordered by IC50: > 10 µM for the first, > 10 µM for the second.

Going from `CC(=O)NCC1CCN(C(=O)CSC2=N[C@@H]3CCCC[C@H]3N2)CC1` (racemic) [TTC-35, (±)-trans-2-((2-(4-(acetamidomethyl)piperidin-1-yl)-2-oxoethyl)thio)-3a,4,5,6,7,7a-hexahydro-1H-benzo[d]imidazol-3-ium chloride] to `O=C(CSc1nc2c([nH]1)CCCC2)N1CCOCC1` [TTC-23, 1-morpholino-2-((4,5,6,7-tetrahydro-1H-benzo[d]imidazol-2-yl)thio)ethan-1-one], the IC50 rises from < 10 µM to > 10 µM. The first is the more potent here.

In the case of `O=C(CSc1nc2ccccc2[nH]1)N1CCOCC1` [TTC-21, 2-((1H-benzo[d]imidazol-2-yl)thio)-1-morpholinoethan-1-one], the IC50 is reported as > 10 µM.

same assay, conditions: JJN3 cell line, 24 h of treatment

For “(3aS,7aS)-2-((4-methylpiperidin-1-yl)-2-oxoethyl)thio)-3a,4,5,6,7,7a-hexahydro-1H-benzo[d]imidazol-3-ium chloride [TTC-27]”, the IC50 was < 10 µM.

same assay, conditions: JJN3 cells, 24 hr treatment

With `O=C(CSc1ncc[nH]1)N1CCOCC1` [TTC-22, 2-((1H-imidazol-2-yl)thio)-1-morpholinoethan-1-one] the “cell death by annexin V/PI” value was “reduced activity”.
`O=C(CSc1nc2ccccc2[nH]1)N1CCOCC1` [TTC-21, 2-((1H-benzo[d]imidazol-2-yl)thio)-1-morpholinoethan-1-one] was tested, and the “cell death by annexin V/PI” value was “reduced activity”.
For `O=C(CSc1nc2c([nH]1)CCCC2)N1CCOCC1` [TTC-23, 1-morpholino-2-((4,5,6,7-tetrahydro-1H-benzo[d]imidazol-2-yl)thio)ethan-1-one], the “cell death by annexin V/PI” value was “reduced activity”.
For `O=C(CSC1=N[C@@H]2CCCC[C@@H]2N1)N1CCOCC1` [TTC-02, cis-2-((2-morpholino-2-oxoethyl)thio)-3a,4,5,6,7,7a-hexahydro-1H-benzo[d]imidazol-3-ium chloride], the “cell death by annexin V/PI” value was “does not induce cell death”.

Reference: US20250368608A1, “SELECTIVE HDAC6 INHIBITOR” (ROYAL COLLEGE OF SURGEONS IN IRELAND, priority 2021, published 2025)
